Reference: US5698563A, “Bis-[hydrazones]” (Alteon Inc., priority 1995, dated 1997)
Where a name gives a salt, the structure may show the parent alone.

Tested on: glomerular basement membrane
Assay: not given
Conditions: streptozotocin-diabetic rat; Brownlee et al., 1988; cited from earlier work

| Compound | intervention in the development of diabetic nephropathy |
| --- | --- |
| N=C(N)NN [aminoguanidine] | intervenes in the development of diabetic nephropathy |

Tested on: dental pellicle
Assay: not given
Conditions: use of chlorhexidine; cited from earlier work

| Compound | dental pellicle |
| --- | --- |
| [H]/N=C(\N/C(=N/[H])NCCCCCCNC(=N)NC(=N)Nc1ccc(Cl)cc1)Nc1ccc(Cl)cc1 [chlorhexidine] | increased dental pellicle |

Tested on: RNAase
Assay: not given
Conditions: free lysine; Eble et al., 1983; cited from earlier work

| Compound | competition with lysine on RNAase for binding of glycosylated protein |
| --- | --- |
| NCCCC[C@H](N)C(=O)O [lysine] | would compete with the lysine on RNAase for the binding of glycosylated protein |

Tested on: red blood cells
Assay: not given
Conditions: in vivo, diabetic rabbits; 100 mg/kg by oral gavage; cited from earlier work

| Compound | diabetes-induced changes in the deformability of red blood cells |
| --- | --- |
| N=C(N)NN [aminoguanidine] | has been shown to prevent it in vivo |

Tested on: Maillard reaction
Assay: not given
Conditions: Nordbo, J. Dent. Res., 1979; cited from earlier work

| Compound | catalysis of browning reactions in vitro |
| --- | --- |
| [H]/N=C(\N/C(=N/[H])NCCCCCCNC(=N)NC(=N)Nc1ccc(Cl)cc1)Nc1ccc(Cl)cc1 [chlorhexidine] | catalyze browning reactions in vitro |
| benzalkonium chloride | catalyze browning reactions in vitro |

Same assay, conditions: attributed to the Maillard reaction; cited from earlier work

| Compound | color formation in mixtures containing a sugar derivative and a source of amino groups |
| --- | --- |
| [H]/N=C(\N/C(=N/[H])NCCCCCCNC(=N)NC(=N)Nc1ccc(Cl)cc1)Nc1ccc(Cl)cc1 [chlorhexidine] | increased color formation |

Tested on: gelatin, i.e., collagen
Assay: Surface browning experiment: gelatin/paper disks in glucose-6-phosphate
Conditions: Peridex at a final concentration of 0.04% chlorhexidine; 100 Mm glucose-6-phosphate, one week at 50° C., pH 7.4
Experimental: To further study the ability of inhibitors of nonenzymatic browning to prevent the discoloration of protein on a surface, such as that which occurs on the tooth surface, the following surface browning experiment is performed. As a substitute for a pellicle-covered tooth surface, unexposed and developed photographic paper is used to provide a fixed protein (gelatin, i.e., collagen) surface on a paper backing. Five millimeter circles are punched and immersed for one week at 50° C. in a solution of 100 Mm glucose-6-phosphate in a 0.5M phosphate buffer, Ph 7.4, containing 3 Mm sodium azide. Glucose-6-phosphate is a sugar capable of participating in nonenzymatic browning at a more rapid rate than glucose. In addition to the glucose-6-phosphate, chlorhexidine and/or a compound of Formula I are included. After incubation, the gelatin/paper disks are rinsed with water, observed for brown color, and photographed.

| Compound | browning of gelatin disks with chlorhexidine |
| --- | --- |
| [H]/N=C(\N/C(=N/[H])NCCCCCCNC(=N)NC(=N)Nc1ccc(Cl)cc1)Nc1ccc(Cl)cc1 [chlorhexidine] | significant browning |

Tested on: immunoglobulin trapping in the kidney
Assay: not given
Conditions: Brownlee et al., Diabetes 1986; cited from earlier work

| Compound | immunoglobulin trapping in the kidney |
| --- | --- |
| N=C(N)NN [aminoguanidine] | reduction of immunoglobulin trapping in the kidney |

Tested on: aortic wall protein cross-linking
Assay: not given
Conditions: diabetic rats; cited from earlier work

| Compound | aortic wall protein cross-linking |
| --- | --- |
| N=C(N)NN [aminoguanidine] | diminishes aortic wall protein cross-linking |

Tested on: cross-linking of glycated bovine serum albumin (AGE-BSA) to the rat tail tendon collagen
Assay: Inhibition of cross-linking of glycated bovine serum albumin (AGE-BSA) to rat tail tendon collagen coated 96-well plate (ELISA)
Format: biochemical
Conditions: 4 h, pH 7.4
Experimental: The following method was used to evaluate the ability of the compounds of the present invention to inhibit the cross-linking of glycated bovine serum albumin (AGE-BSA) to the rat tail tendon collagen coated 96-well plate.
The AGE-BSA was prepared by incubating BSA at a concentration of 200 mg per ml with 200 mM glucose in 0.4M sodium phosphate buffer, pH 7.4 at 37° C. for 12 weeks. The glycated BSA was then extensively dialyzed against phosphate buffer solution (PAS) for 48 hours with additional 5 times buffer exchanges. The rat tail tendon collagen coated plate was blocked first with 300 μl of superbloc blocking buffer (Pierce #37515X) for one hour. The blocking solution was removed from the wells by washing the plate twice with PAS-Tween 20 solution (0.05% Tween 20) using a NUNC-multiprobe or Dynatech ELISA-plate washer. Cross-linking of AGE-BSA (1 to 10 μg per well depending on the batch of AGE-BSA) to rat tail tendon collagen coated plate was performed with and without the testing compound dissolved in PAS buffer at pH 7.4 at the desired concentrations by the addition of 50 μl each of the AGE-BSA diluted in PAS or in the testing compound at 37° C. for 4 hours. The unbrowned BSA in PAS buffer with or without testing compound were added to the separate wells as the blanks. The un-cross-linked AGE-BSA was then removed by washing the wells three times with PAS-Tween buffer. The cross-linked AGE-BSA to the tail tendon coated plate was then quantitated by the polyclonal antibody raised against AGE-RNase. After a one-hour incubation period, AGE antibody was removed by washing 4 times with PAS-Tween.
The bound AGE antibody was then detected with the addition of horseradish peroxidase-conjugated secondary antibody, e.g., goat anti-rabbit immunoglobulin and incubation for 30 minutes. The substrate of 2,2-azino-di(3-ethylbenzthiazoline sulfonic acid) (ABTS chromogen) (Zymed #00-2011) was added. The reaction was allowed for an additional 15 minutes and the absorbance was read at 410 nm in a Dynatech plate reader.
The % inhibition of each test compound was calculated as follows.
% inhibition={[Optical density (without compound)-optical density (with
compound)]/optical density (without compound)]}100%
The IC50 relative inhibition by various test compounds at 10 Mm is as follows: […]

| IC50 [µM] | Compound |
| --- | --- |
| 10 | C1CCC(=NNC2=NCCN2)C(=NNC2=NCCN2)C1 [1,2-cyclohexanedione bis(2-hydrazino-2-imidazoline hydrazone)dihydrobromidedihydrate] |
| 6.7 | C1CN=C(NN=C2CCCCC2=NNC2=NCCCN2)NC1 [1,2-cyclohexanedione bis(2-tetrahydropyrimidine)hydrazone dihydrobromide] |
| 20 | C1=CC(=NNC2=NCCN2)C=CC1=NNC1=NCCN1 [1,4-benzoquinone bis(2-hydrazino-2-imidazoline hydrazone) dihydrobromide] |
| 100 | C1CNC(NN=C2CCC(=NNC3=NCCN3)CC2)=N1 [1,4-cyclohexane dione bis(2-hydrazino-2-imidazoline hydrazone]dihydrobromide dihydrate] |
| 4.1 | CC(=NNC1=NCCCN1)C(C)=NNC1=NCCCN1 [2,3-butanedione bis(2-tetrahydropyrimidine)hydrazone dihydrobromide] |
| 33 | CCCC(=NNC1=NCCCN1)C(C)=NNC1=NCCCN1 [2,3-hexanedione bis(2-tetrahydropyrimidine)hydrazone dihydrobromide] |
| 30 | C(=NNC1=NCCN1)c1cc2ccccc2cc1C=NNC1=NCCN1 [2,3-naphthalene dialdehyde bis(2-hydrazino-2-imidazoline hydrazone)dihydrobromide dihydrate] |
| 40 | CC(CC(C)=NNC1=NCCN1)=NNC1=NCCN1 [2,4-pentanedione bis(2-hydrazino-2-imidazoline hydrazone)dihydrobromide] |
| 20 | c1coc(C(=NNC2=NCCN2)C(=NNC2=NCCN2)c2ccco2)c1 [furyl bis (2-hydrazino-2-imidazoline hydrazone) dihydrobromide] |
| 310 | N=C(N)NN=CC(=NNC(=N)N)c1ccco1 [furyl glyoxal bis (guanyl hydrazone)dihydrochloride dihydrate] |
| 120 ± 100 | C(=NNC1=NCCN1)C(=NNC1=NCCN1)c1ccco1 [furyl glyoxal bis(2-hydrazino-2-imidazoline hydrazone) dihydrobromide dihydrate] |
| 20 | OCCN1CCCN=C1NN=CC(=NNC1=NCCCN1CCO)c1ccco1 [furyl glyoxal bis[1-(2-hydroxyethyl)-2-hydrazino-1,4,5,6-tetrahydropyrimidine hydrazone]dimethanesulfonate dihydrate] |
| 920 ± 260 | OCCN1CCN=C1NN=CC(=NNC1=NCCN1CCO)c1ccco1 [furyl glyoxal bis[1-(2-hydroxyethyl)-2-hydrazino-2-imidazoline hydrazone]dimethanesulfonate monohydrate] |
| 840 ± 120 | CC(C=NNC1=NCCCN1)=NNC1=NCCCN1 [methyl glyoxal bis(2-hydrazino-1,4,5,6-tetrahydropyrimidine hydrazone)dihydrobromide] |
| 2040 ± 50 | CC(C=NNC1=NCCN1)=NNC1=NCCN1 [methyl glyoxal bis(2-hydrazino-2-imidazoline hydrazone) dihydrobromide] |
| 170 ± 110 | CC(C=NNC1=NCCCN1CCO)=NNC1=NCCCN1CCO [methyl glyoxal bis[1-(2-hydroxyethyl)-2-hydrazino-1,4,5,6-tetrahydropyrimidine hydrazone]dimethanesulfonate] |
| 320 ± 70 | CC(C=NNC1=NCCN1CCO)=NNC1=NCCN1CCO [methyl glyoxal bis[1-(2-hydroxyethyl)-2-hydrazino-2-imidazoline hydrazone]dimethanesulfonate] |
| 220 ± 50 | CC(C=NNC(=N)NCCCN(C)C)=NNC(=N)NCCCN(C)C [methyl glyoxal bis[N-3-dimethylaminopropyl)hydrazinecarboximidamide hydrazone]tetrahydrobromide] |
| 440 ± 60 | CC(C=NNC(=N)NCC(C)(C)CN(C)C)=NNC(=N)NCC(C)(C)CN(C)C [methyl glyoxal bis[N-(2,2-dimethyl-3-dimethylaminopropyl)hydrazinecarboximidamide hydrazone]tetrahydrobromide] |
| 120 | CCc1nnc(NN=CC(C)=NNc2nnc(CC)n2N)n1N [methyl glyoxal-bis-(4-amino-3-hydrazino-5-ethyl-1,2,4-triazole)hydrazone dihydrochloride] |
| 110 | CC(C=NNc1nnc(C(C)C)n1N)=NNc1nnc(C(C)C)n1N [methyl glyoxal-bis-(4-amino-3-hydrazino-5-isopropyl-1,2,4-triazole)hydrazone dihydrochloride] |
| 2200 ± 130 | CC(C=NNC(=N)NCCN1CCOCC1)=NNC(=N)NCCN1CCOCC1 [methylglyoxal bis{N-[2-(4-morpholino)ethyl]hydrazinecarboximidamide hydrazone}tetrahydrobromide] |
| 430 ± 80 | C(=NNC1=NCCN1)c1ccccc1C=NNC1=NCCN1 [o-phthalicdicarboxaldehyde bis(2-hydrazino-2-imidazoline hydrazone)dihydrobromide monohydrate] |
| 340 ± 190 | N=C(N)NN=CC(=NNC(=N)N)c1ccccc1 [phenyl glyoxal bis(guanylhydrazone)dihydrochloride] |
| 70 ± 100 | OCCN1CCCN=C1NN=CC(=NNC1=NCCCN1CCO)c1ccccc1 [phenyl glyoxal bis[1-(2-hydroxyethyl)-2-hydrazino-1,4,5,6-tetrahydropyrimidine hydrazone]dimethanesulfonate dihydrate] |
| 90 ± 130 | OCCN1CCN=C1NN=CC(=NNC1=NCCN1CCO)c1ccccc1 [phenyl glyoxal bis[1-(2-hydroxyethyl)-2-hydrazino-2-imidazoline hydrazone]dimethanesulfonate dihydrate] |
